PMC9090415, “Discovery of small molecule inhibitors of Plasmodium falciparum apicoplast DNA polymerase” (Journal of Enzyme Inhibition and Medicinal Chemistry, 2022)

Molecular target: P. falciparum apicoplast DNA polymerase (Pf-apPOL) (Plasmodium falciparum, UniProt Q8ILY1)
Test: Fluorescence-based high-throughput DNA polymerase assay (molecular beacon), primary screen and dose-response;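 for % inhibition Apol 40': compound concentration given in µM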
Type: biochemical
Conditions: for DNA Pol: 90 min, 10 µM
How it was run: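 Single-point screening used 10 µM compound with 20 nM polymerase, 20 nM hairpin substrate and 6 µM dNTPs for 90 min at 25 °C. Confirmatory titrations (2.5–80 µM) followed fluorescence at three times, and IC50 was derived from a fit including a cooperativity term n.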

[1] = "DNA Pol" of the 186 hits list (screen value)

Chain of P. falciparum apicoplast DNA polymerase (Pf-apPOL) (Q8ILY1 entry or part of it): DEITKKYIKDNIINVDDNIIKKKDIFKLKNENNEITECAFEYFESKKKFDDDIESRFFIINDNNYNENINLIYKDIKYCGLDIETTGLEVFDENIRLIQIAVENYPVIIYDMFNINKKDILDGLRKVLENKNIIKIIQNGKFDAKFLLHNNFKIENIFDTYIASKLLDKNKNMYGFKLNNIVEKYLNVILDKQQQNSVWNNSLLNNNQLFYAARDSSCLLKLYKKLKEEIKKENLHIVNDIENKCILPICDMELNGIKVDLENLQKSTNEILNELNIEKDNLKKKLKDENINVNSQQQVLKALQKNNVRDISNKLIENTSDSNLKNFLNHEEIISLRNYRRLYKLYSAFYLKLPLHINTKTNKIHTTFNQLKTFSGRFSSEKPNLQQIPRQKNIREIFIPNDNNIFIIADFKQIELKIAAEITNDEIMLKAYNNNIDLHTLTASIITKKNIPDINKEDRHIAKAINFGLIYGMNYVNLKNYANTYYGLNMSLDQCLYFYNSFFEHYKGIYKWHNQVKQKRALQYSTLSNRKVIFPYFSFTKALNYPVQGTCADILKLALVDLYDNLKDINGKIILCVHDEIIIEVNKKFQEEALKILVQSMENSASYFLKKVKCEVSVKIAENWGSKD

O=C(c1c[nH]c2ncccc12)N1CCCC1 [Molecule 63, O=C(c1c[nH]c2c1cccn2)N1CCCC1]
DNA Pol [1]: 28 | % inhibition Apo pol 10' (DRC-1, concentration 2.5): 5.209% | % inhibition Apo pol 10' (DRC-1, concentration 5): 6.34% | % inhibition Apo pol 10' (DRC-1, concentration 10): 30.6254% | % inhibition Apo pol 10' (DRC-1, concentration 20): 50.0486% | % inhibition Apo pol 10' (DRC-1, concentration 40): 59.3862% | % inhibition Apo pol 10' (DRC-1, concentration 80): 75.2483% | % inhibition Apol 90' (DRC-1, concentration 2.5): 5.771% | % inhibition Apol 90' (DRC-1, concentration 5): 3.06% | % inhibition Apol 90' (DRC-1, concentration 10): 21.9015% | % inhibition Apol 90' (DRC-1, concentration 20): 39.4898% | % inhibition Apol 90' (DRC-1, concentration 40): 47.3849% | % inhibition Apol 90' (DRC-1, concentration 80): 77.404% | % inhibition apPOL 180' (DRC-1, concentration 2.5): 3.366% | % inhibition apPOL 180' (DRC-1, concentration 5): -1.279% | % inhibition apPOL 180' (DRC-1, concentration 10): 12.4312% | % inhibition apPOL 180' (DRC-1, concentration 20): 25.4337% | % inhibition apPOL 180' (DRC-1, concentration 40): 33.3219% | % inhibition apPOL 180' (DRC-1, concentration 80): 74.0045% | % inhibition Apo pol 5' (DRC-2, concentration 2.5): 3% | % inhibition Apo pol 5' (DRC-2, concentration 5): 10% | % inhibition Apo pol 5' (DRC-2, concentration 10): 29% | % inhibition Apo pol 5' (DRC-2, concentration 20): 40% | % inhibition Apo pol 5' (DRC-2, concentration 40): 42% | % inhibition Apo pol 5' (DRC-2, concentration 80): 32% | % inhibition Apol 40' (DRC-2, concentration 2.5): 3.74% | % inhibition Apol 40' (DRC-2, concentration 5): 11% | % inhibition Apol 40' (DRC-2, concentration 10): 33% | % inhibition Apol 40' (DRC-2, concentration 20): 50% | % inhibition Apol 40' (DRC-2, concentration 40): 62% | % inhibition Apol 40' (DRC-2, concentration 80): 58% | % inhibition ApPOL 90' (DRC-2, concentration 2.5): 2.81% | % inhibition ApPOL 90' (DRC-2, concentration 5): 10% | % inhibition ApPOL 90' (DRC-2, concentration 10): 30% | % inhibition ApPOL 90' (DRC-2, concentration 20): 49% | % inhibition ApPOL 90' (DRC-2, concentration 40): 66% | % inhibition ApPOL 90' (DRC-2, concentration 80): 65% | % inhibition apPOL 180' (DRC-2, concentration 2.5): -1% | % inhibition apPOL 180' (DRC-2, concentration 5): 3.46% | % inhibition apPOL 180' (DRC-2, concentration 10): 21% | % inhibition apPOL 180' (DRC-2, concentration 20): 41% | % inhibition apPOL 180' (DRC-2, concentration 40): 65% | % inhibition apPOL 180' (DRC-2, concentration 80): 68% | DNA Pol (primary screen value, DNA Pol): 28

Cc1ccc(NC(=O)C2CCN(C(=O)c3cc4ccsc4[nH]3)CC2)c(Br)c1 [Molecule 14, O=C(C1CCN(CC1)C(=O)c1cc2c([nH]1)scc2)Nc1ccc(cc1Br)C]
DNA Pol [1]: 67 | % inhibition Apo pol 10' (DRC-1, concentration 2.5): 11% | % inhibition Apo pol 10' (DRC-1, concentration 5): 36% | % inhibition Apo pol 10' (DRC-1, concentration 10): 68% | % inhibition Apo pol 10' (DRC-1, concentration 20): 88% | % inhibition Apo pol 10' (DRC-1, concentration 40): 87% | % inhibition Apo pol 10' (DRC-1, concentration 80): 89% | % inhibition Apol 90' (DRC-1, concentration 2.5): 6% | % inhibition Apol 90' (DRC-1, concentration 5): 22% | % inhibition Apol 90' (DRC-1, concentration 10): 48% | % inhibition Apol 90' (DRC-1, concentration 20): 76% | % inhibition Apol 90' (DRC-1, concentration 40): 77% | % inhibition Apol 90' (DRC-1, concentration 80): 84% | % inhibition apPOL 180' (DRC-1, concentration 2.5): 5% | % inhibition apPOL 180' (DRC-1, concentration 5): 12% | % inhibition apPOL 180' (DRC-1, concentration 10): 30% | % inhibition apPOL 180' (DRC-1, concentration 20): 61% | % inhibition apPOL 180' (DRC-1, concentration 40): 63% | % inhibition apPOL 180' (DRC-1, concentration 80): 75% | % inhibition Apo pol 5' (DRC-2, concentration 2.5): 11% | % inhibition Apo pol 5' (DRC-2, concentration 5): 22% | % inhibition Apo pol 5' (DRC-2, concentration 10): 43% | % inhibition Apo pol 5' (DRC-2, concentration 20): 50% | % inhibition Apo pol 5' (DRC-2, concentration 40): 54% | % inhibition Apo pol 5' (DRC-2, concentration 80): 48% | % inhibition Apol 40' (DRC-2, concentration 2.5): 9% | % inhibition Apol 40' (DRC-2, concentration 5): 22% | % inhibition Apol 40' (DRC-2, concentration 10): 49% | % inhibition Apol 40' (DRC-2, concentration 20): 62% | % inhibition Apol 40' (DRC-2, concentration 40): 68% | % inhibition Apol 40' (DRC-2, concentration 80): 67% | % inhibition ApPOL 90' (DRC-2, concentration 2.5): 8.49% | % inhibition ApPOL 90' (DRC-2, concentration 5): 18% | % inhibition ApPOL 90' (DRC-2, concentration 10): 45% | % inhibition ApPOL 90' (DRC-2, concentration 20): 61% | % inhibition ApPOL 90' (DRC-2, concentration 40): 68% | % inhibition ApPOL 90' (DRC-2, concentration 80): 70% | % inhibition apPOL 180' (DRC-2, concentration 2.5): 2.63% | % inhibition apPOL 180' (DRC-2, concentration 5): 12% | % inhibition apPOL 180' (DRC-2, concentration 10): 34% | % inhibition apPOL 180' (DRC-2, concentration 20): 52% | % inhibition apPOL 180' (DRC-2, concentration 40): 64% | % inhibition apPOL 180' (DRC-2, concentration 80): 69% | % inhibition Apo pol 10' (first DRC, concentration 2.5): 11% | % inhibition Apo pol 10' (first DRC, concentration 10): 68% | % inhibition Apol 90' (first DRC, concentration 5): 22% | % inhibition Apol 90' (first DRC, concentration 10): 48% | % inhibition apPOL 180' (first DRC, concentration 5): 12% | % inhibition apPOL 180' (first DRC, concentration 20): 61% | DNA Pol (primary screen value, DNA Pol): 67

Cc1ccccc1C(=O)N1CCc2c(nc3cc(-c4ccccc4)[nH]n3c2=O)C1 [Molecule 41, Cc1ccccc1C(=O)N1CCc2c(C1)nc1n(c2=O)[nH]c(c1)c1ccccc1]
DNA Pol ('DNA Pol' of the 186 hits list (primary screen value)): 47 | DNA Pol (DNA Pol (primary screen value)): 47 | % inhibition Apo pol 10' (DRC-1, concentration 2.5): 6.184% | % inhibition Apo pol 10' (DRC-1, concentration 5): 10.1754% | % inhibition Apo pol 10' (DRC-1, concentration 10): 45.445% | % inhibition Apo pol 10' (DRC-1, concentration 20): 74.5975% | % inhibition Apo pol 10' (DRC-1, concentration 40): 80.8347% | % inhibition Apo pol 10' (DRC-1, concentration 80): 67.5135% | % inhibition Apol 90' (DRC-1, concentration 2.5): 1.828% | % inhibition Apol 90' (DRC-1, concentration 5): 3.445% | % inhibition Apol 90' (DRC-1, concentration 10): 31.8176% | % inhibition Apol 90' (DRC-1, concentration 20): 59.5671% | % inhibition Apol 90' (DRC-1, concentration 40): 74.5448% | % inhibition Apol 90' (DRC-1, concentration 80): 71.589% | % inhibition apPOL 180' (DRC-1, concentration 2.5): -1.511% | % inhibition apPOL 180' (DRC-1, concentration 5): -3.248% | % inhibition apPOL 180' (DRC-1, concentration 10): 20.9007% | % inhibition apPOL 180' (DRC-1, concentration 20): 43.9765% | % inhibition apPOL 180' (DRC-1, concentration 40): 64.8377% | % inhibition apPOL 180' (DRC-1, concentration 80): 65.5415% | % inhibition Apo pol 5' (DRC-2, concentration 2.5): 7% | % inhibition Apo pol 5' (DRC-2, concentration 5): 8% | % inhibition Apo pol 5' (DRC-2, concentration 10): 20% | % inhibition Apo pol 5' (DRC-2, concentration 20): 17% | % inhibition Apo pol 5' (DRC-2, concentration 40): 46% | % inhibition Apo pol 5' (DRC-2, concentration 80): 29% | % inhibition Apol 40' (DRC-2, concentration 2.5): 9% | % inhibition Apol 40' (DRC-2, concentration 5): 5.58% | % inhibition Apol 40' (DRC-2, concentration 10): 22% | % inhibition Apol 40' (DRC-2, concentration 20): 18% | % inhibition Apol 40' (DRC-2, concentration 40): 61% | % inhibition Apol 40' (DRC-2, concentration 80): 54% | % inhibition ApPOL 90' (DRC-2, concentration 2.5): 8% | % inhibition ApPOL 90' (DRC-2, concentration 5): 5% | % inhibition ApPOL 90' (DRC-2, concentration 10): 21% | % inhibition ApPOL 90' (DRC-2, concentration 20): 17% | % inhibition ApPOL 90' (DRC-2, concentration 40): 61% | % inhibition ApPOL 90' (DRC-2, concentration 80): 59% | % inhibition apPOL 180' (DRC-2, concentration 2.5): 4.5% | % inhibition apPOL 180' (DRC-2, concentration 5): 1.21% | % inhibition apPOL 180' (DRC-2, concentration 10): 16% | % inhibition apPOL 180' (DRC-2, concentration 20): 9% | % inhibition apPOL 180' (DRC-2, concentration 40): 55% | % inhibition apPOL 180' (DRC-2, concentration 80): 58%
